Results on six compounds are retold here after patent US12162889B2, “Luminogens for biological applications” (THE HONG KONG UNIVERSITY OF SCIENCE AND TECHNOLOGY, priority 2016, dated 2024).

One data set deals with HeLa cells. The data set can be described thus: Cell imaging of living HeLa cells with AIE dots. The class given is cell-based. As to conditions: dye as AIE dots, 12 h, 37° C. On the procedure: Generally, 1 mg of the AIEgen and 5 mg of DSPE-PEG-Biotin were dissolved in 1 mL of chloroform. Subsequently, 9 mL of Milli-Q water was added into the chloroform solution under sonication for 10 minutes at room temperature using a microtip probe sonicator with an 18 W output (XL2000, Misonix Incorp., USA). The mixture was stirred in the nitrogen flow overnight until the chloroform was completely evaporated. A clear solution was obtained, and the solution was filtered through a 0.45 μm microfilter to result in the formation of AIE dots.
Cell Culture: HeLa cells were cultured in MEM containing 10% FBS and antibiotics (100 units/mL penicillin and 100 µg/mL streptomycin) in a 5% CO2 humidity incubator at 37° C. All culture media were supplemented with 10% heat-inactivated FBS, 100 units/mL penicillin, and 100 μg/mL streptomycin. Before the experiment, the cells were precultured until confluence was reached.
Cell Imaging: HeLa cells were grown overnight on a 35 mm petri dish with a cover slip at 37° C. After removal of the medium, the adherent cells were washed twice with 1× phosphate buffered saline (PBS) buffer. The AIE dots were then added to the chamber. After incubation for 12 hours, the cells were washed three times with 1×PBS buffer. The cells were imaged on a Zeiss laser scanning confocal microscope and analyzed using ZEN 2009 software.

The nature of another data set: Two-photon absorption. The class given is physicochemical. An excerpt:
The TPA spectrum of AIE dots in water with the wavelength range from 800-1000 nm at 20 nm intervals was investigated. […] Moreover, a 900 nm fs laser expects to have deeper penetration and better focusing capability than the commonly used 770-860 nm Ti:Sapphire fs laser. Therefore, the TTS dots are a promising candidate for two-photon deep-tissue in vivo bioimaging.

Data set [1] is described as follows: Absorption spectra in solvents / aqueous media. The data set is classed as physicochemical. An excerpt: With introduction of extra arylamine units to the TTB molecule, the absorption peak of TTS is slightly red-shifted due to longer electronic conjugation.
(§1) Due to the higher ΦF and much better processability of TTS, it was chosen for further biological applications. For easy dispersion of the highly hydrophobic TTS molecules in an aqueous environment, the TTS dots were formulated through a simple procedure by a nanoprecipitation method with amphiphilic and biocompatible 1,2-distearoyl-sn-glycero-3-phosphoethanolamine-N [methoxy(polyethyleneglycol)-2000] (DSPE-PEG 2000) as the encapsulation matrix (FIG. 70). […] TTS dots have an absorption maxima at 497 nm in aqueous media, which fits well with the commercial laser excitation at 488 nm. The strong emission of TTS dots (FIG. 71B) peaks at the red region (630 nm) and tails to the near-infrared region (820 nm). It is noteworthy that the Stokes shift of the TTS dots is big enough (>130 nm) to solve the serious problem of the self-quenching effect common in conventional organic dye molecules.

Data set [2] in a line: Photoluminescence (emission) spectra in solvents, THF/water aggregates, powder and dots. The class given is physicochemical.
Description: The photoluminescence (PL) spectrum of TTS (FIG. 66) is basically a flat line parallel to the abscissa in pure THF. The spectral pattern remains unchanged at water content up to 40%. Afterwards, the PL intensity increases dramatically. The higher the water fraction, the stronger the emission intensity. The emission peak reaches to ˜636 nm. The emission intensity reaches its maximum value at 90% water content, which is 170-fold higher than that in pure THF
When the solvent polarity was increased from Tol to NMP, the emission of TTB, TTA, and TTS are red-shifted with an emission quenching effect. […] However, compared with TTB molecule, TTA and TTS molecules are more sensitive to solvent polarity. TTA and TTS are emissive in Tol, weak emissive in DO and nonemissive in THF with medium polarity. In contrast, TTB is highly emissive in Tol, DO, and THF, and even in the high polarity solvent NMP, TTB is still emissive observed by the naked eye. […] It is probable that even in THF with medium polarity, the conformation of the TTA or TTS becomes twisted and the charge becomes separated.
In pure THF solution, it is non-emissive. The PL intensity remains unchanged at water fraction fw<50%. Afterwards, the PL intensity reaches its maximum value at 90% water content with emission peak at ˜635 nm. Thus, both TTS and TTA are AIE-active.
as §1

The nature of data set [3]: Fluorescence quantum yield and lifetime. The class given is physicochemical.
The nature of data set [4]: Energy band gap and HOMO/LUMO from absorption onset and onset oxidation potential. The data set is classed as physicochemical.
For data set [5] the following is noted: in methanol; cited from earlier work.
The mark [6] stands for this setting: aggregate, excitation 900 nm laser.

The structures appear in SMILES notation.

Regarding `COc1ccc(C(=C(c2ccccc2)c2ccc(-c3sc(-c4ccc(C(=C(c5ccc(OC)cc5)c5ccc(OC)cc5)c5ccccc5)cc4)c4nc(-c5ccccc5)c(-c5ccccc5)nc34)cc2)c2ccc(OC)cc2)cc1` [MTPE-TP, 5,7-bis(4-(2,2-bis(4-methoxyphenyl)-1-phenylvinyl)phenyl)-2,3-diphenylthieno[3,4-b′]pyrazine], the fluorescence in cells result in the data set on HeLa cells is reported as “intense red fluorescence was observed in the cellular cytoplasms”.
Take `c1ccc(-c2nc3c(-c4ccc(N(c5ccccc5)c5cccc6ccccc56)cc4)c4nsnc4c(-c4ccc(N(c5ccccc5)c5cccc6ccccc56)cc4)c3nc2-c2ccccc2)cc1` [NPB-TQ, N,N′-((6,7-diphenyl-[1,2,5]thiadiazolo[3,4-g]quinoxaline-4,9-diyl)bis(4,1-phenylene))bis(N-phenylnaphthalen-1-amine)]: the two-photon absorption properties entry in the data set “Two-photon absorption” is listed as “excellent two-photon absorption properties”.
For the compound `CCCCCCCCN1c2ccc(-c3ccc(-c4ccc(N(c5ccccc5)c5ccccc5)cc4)c4nsnc34)cc2Sc2cc(-c3ccc(-c4ccc(N(c5ccccc5)c5ccccc5)cc4)c4nsnc34)ccc21` [PTZ-BT-TPA, 4,4′-((10-octyl-10H-phenothiazine-3,7-diyl)bis(benzo[c][1,2,5]thiadiazole-7,4-diyl))bis(N,N-diphenylaniline)], the two-photon absorption properties result in the data set “Two-photon absorption” is on record as “excellent two-photon absorption properties”. In the data set on HeLa cells, the fluorescence in cells entry was “intense red fluorescence was observed in the cellular cytoplasms”.
For `c1ccc(C(=C(c2ccccc2)c2ccc(-c3ccc(N(c4ccc(-c5ccc(C(=C(c6ccccc6)c6ccccc6)c6ccccc6)cc5)cc4)c4ccc(-c5sc(-c6ccc(N(c7ccc(-c8ccc(C(=C(c9ccccc9)c9ccccc9)c9ccccc9)cc8)cc7)c7ccc(-c8ccc(C(=C(c9ccccc9)c9ccccc9)c9ccccc9)cc8)cc7)cc6)c6c5N=S=N6)cc4)cc3)cc2)c2ccccc2)cc1` [TPE-TPA-TT, N,N′-(thieno[3,4-b][1,2,5]thiadiazole-5,7-diylbis(4,1-phenylene))bis(4′-(1,2,2-triphenylvinyl)-N-(4′-(1,2,2-triphenylvinyl)-[1,1′-biphenyl]-4-yl)-[1,1′-biphenyl]-4-amine)], the two-photon absorption properties entry in “Two-photon absorption” is “excellent two-photon absorption properties”.
On to `c1ccc(C(=C(c2ccccc2)c2ccc(N(c3ccc(-c4ccc(-c5ccc(N(c6ccc(C(=C(c7ccccc7)c7ccccc7)c7ccccc7)cc6)c6ccc(N(c7ccccc7)c7ccccc7)cc6)cc5)c5nsnc45)cc3)c3ccc(N(c4ccccc4)c4ccccc4)cc3)cc2)c2ccccc2)cc1` [TTS], for which the “λab absorption maximum in THF” value in data set [1] (THF (Table 2)) is reported as 481 nm. Further, the λab absorption maximum in data set [1] (solvent DO) is reported as 478 nm; in data set [1] (solvent NMP), 484 nm; in data set [1] (solvent THF), 481 nm; in data set [1] (solvent Tol), 484 nm. Moreover, in data set [2] (THF solution), the “λem emission maximum soln” value was found to be 641. For the same compound, in data set [2] (THF/water mixture (1:9 by volume)), the “λem emission maximum aggr” value was determined as 636. Moreover, the “emission intensity at 90% water content relative to pure THF” value in data set [2] (THF/water, 10 μM, excitation 480 nm) is 170 fold. Besides, the “emission peak in THF/water mixture” value in data set [2] (aggregate state, high water content (90%)) is given as roughly 636 nm. The “λem emission maximum powder” value in data set [2] (solid powder) is given as 636. Besides, the λem emission maximum in data set [2] (solvent DO, excitation 480 nm) is 640 nm; in data set [2] (solvent Tol, excitation 480 nm), 623 nm. Further, the “fluorescence quantum yield ΦF soln” value in data set [3] (THF solution, in parentheses) is recorded as “(0.1) %”. In data set [3] (setting [6]), the “quantum efficiency relative to rhodamine B” value came out at 38.5%. Also, the “τ fluorescence lifetime of solid powders” value in data set [3] (solid powder) turned out to be 1.86 ns. In addition, in data set [3] (solid powder, in parentheses), the “solid powders fluorescence quantum yield ΦF” value is listed as “(34.1) %”. Besides, in data set [4] (LUMO = HOMO + Eg), the LUMO is listed as −2.84 eV. Besides, in data set [4] (calculated from the onset of the absorption spectrum), the “Eg energy band gap” value was 2.21 eV. Also, in data set [4] (calculated from the onset oxidation potential), the HOMO was −5.05 eV. The “maximum two-photon absorption cross section” value in the data set “Two-photon absorption” (setting [6]) came out at 310 GM.
For the compound `CCN(CC)c1ccc2c(-c3ccccc3C(=O)O)c3ccc(=[N+](CC)CC)cc-3oc2c1.[Cl-]` [rhodamine B], the ΦF of reference in data set [5] was 41.9%.
